pEC50, pIC50: −log10 of the molar value. Counter-ions that a name gives are not always drawn.
Legend:
[1] = target: T1, viral reverse transcriptase (Human immunodeficiency virus type 1 group M subtype B, UniProt P04585); assay: Viral reverse transcriptase inhibition, cell free assay; format: biochemical, human immunodeficiency virus (HIV-1); settings: read-out: RT % INHIBITION (100 μM), 100 μM; poly rC or poly rG template
T1 construct: Viral reverse transcriptase is found in extracts from bacterial clones; made in house; host or cells: Escherichia coli (extracts of bacterial clones, by the procedure of Larder et al., EMBO J. 6:3133-3137, 1987)
In short: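 E. coli-expressed HIV-1 RT extract was incubated with inhibitor, 10 μM [35S]-dNTP, poly rC/rG template and oligo dG/dT primer in Tris pH 8.3 with Mg2+ at 37 °C (30 min; 15 min in an alternative version). DNA incorporation was counted on filters and reported as % inhibition (at 100 μM in one version) and IC50.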

[2] = system: HIV-1 (MT-2 cells infected with HIV-1); assay: Inhibition of HIV-induced syncytia formation in MT-2 cells; format: cell-based; settings: for pIC50: Human immunodeficiency virus 1, MT2, MT-2 cells infected with HIV-1, read-out: INHIBITION OF SYNCYTIA FORMATION ED50
From the text: This test is described in Quantitative Infectivity Assay for HIV-1 and -2., Nature 332: 469-470, 1988 as well as in AIDS RESEARCH AND HUMAN RETROVIRUSES, Vol. 4, No. 6, pages 449-455 (1988), Mary Ann Liebent, Inc., Publishers; in an article entitled "Nucleotide Dimers Suppress HIV Expression In VITRO". The results (IC50 means the concentration, in μM of drug, required to inhibit syncytia formation to the extent of 50%) of various assay(s) are combined and reported as % inhibition and IC50 (calculated).
ability of various compounds used to inhibit HIVinduced syncytia formatio
in a tissue culture assay using MT2 cells infected with HIV1. This test i
described by Nara et al., Quantitative infectivity assay for HIV1 and 2,
Nature 332, 469-470 (1988), as well as in AIDS RESEARCH AND HUMAN
RETROVIRUSES, vol. 4, No. 6, pages 449-455 (1988), Mary Ann Liebent, Inc.
Publishers, and in an article by Mariano Busso, et al., entitled
"Nucleotide Dimers Suppress HIV Expression In Vitro". The results
(ED50 means the concentration, in μM of drug, required to inhibit
syncytia formation to the extent of 50%) of various assay are combined an
reported in Table I. In comparison, the known commercial compound, AZT,
percent reductions in syncytia formation at concentrations of
approximately 1 μM and 0.5 μM, respectively.

[3] = system: HIV in primary human peripheral blood lymphocytes; assay: Primary PBL assay: inhibition of viral replication (p24 & RNA); format: cell-based; settings: Human immunodeficiency virus 1, Lymphocyte, primary human lymphocytes infected with HIV, days three and four, read-out: PBL INHIBITION OF VIRAL REPLICATION (p24 & RNA) ED50
In short: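 Mitogen-stimulated human PBLs infected with standardized HIV, cultured with drug 4 days at one tenth of the antiproliferative half-maximal concentration. Secreted p24 by capture-ELISA and total HIV RNA by hybridization on days 3 and 4, with viability in parallel; ED50 is the concentration giving 50% reduction in p24.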

Compound	inhibition at 100 µM [1] [%]	pIC50 [2]	pEC50 [3]	pEC50 ([2]; Human immunodeficiency virus 1, MT2, read-out: concentration giving 50 percent reduction in syncytia formation)	IC100 ([2]; Human immunodeficiency virus 1, MT2, read-out: concentration giving 100 percent reduction in syncytia formation) [µM]
CC(C)(C)Nc1cccnc1N1CCN(C(=O)c2cc3ccccc3[nH]2)CC1 [Example 44, 1-[Indolyl-2-carbonyl]-4-[3-(1,1-dimethylethylamino)-2-pyridinyl]piperazine]	89	7.00	8.00 to 9.00		
CC(C)Nc1cccnc1N1CCCN(C(=O)c2cc3ccccc3[nH]2)CC1 [Example 83, 1-(Indolyl-2-carbonyl)-4-[3-(1-methylethylamino)-2-pyridinyl]-1,4-diazepine]	97 to 98	> 6.52	> 9.00		
CC(C)Nc1cccnc1N1CCN(C(=O)c2cc3cc(NC(=O)CN)ccc3[nH]2)CC1 [Example 86, 1-[5-(2'-Aminoacetamido)indolyl-2-carbonyl]-4-(3-(1-methylethylamino)-2-pyridinyl)piperazine hydrochloride]	78 to 96	> 6.70	8.00 to 9.00		
CCNc1cccnc1N1CCN(C(=O)c2cc3cc(O)ccc3[nH]2)CC1 [Example 37, 1-[5-Hydroxyindolyl-2-carbonyl]-4-[3-(ethylamino)-2-pyridinyl]piperazine]	82 to 95	6.52	7.00		
CCNc1cccnc1N1CCN(Cc2cc(C)c(OC)c(C)c2)CC1 [Example 3, 1-[4-Methoxy-3,5-dimethylbenzyl]-4-[3-(ethylamino)-2-pyridinyl]piperazine]	70 to 76	5.60 to 6.00	6.00		
CCNc1cccnc1N1CCN(C(=O)c2cc3ccccc3o2)CC1 [Example 27, 1[Benzofuroyl-2-carbonyl]-4-[3-(ethylamino) -2-pyridinyl]piperazine]	37 to 57	< 9.00	5.00		
CC(C)Nc1cccnc1N1CCN(Cc2cc3cc(F)ccc3[nH]2)CC1 [Example 32, 1-[5-Fluoroindolyl-2-methyl]-4-[3-(1-methylethylamino)-2-pyridinyl]piperazine]	96	> 6.52	8.00 to 8.52		
CC(C)Nc1cccnc1N1CCN(C(=O)c2cc3ccccc3[nH]2)CC1 [Example 17, 1-[Indolyl-2-carbonyl]-4-[3-(1-methylethylamino)-2-pyridinyl]piperazine]	96	≥ 6.52	≥ 8.00		
CCNc1cccnc1N1CCN(C(=O)c2ccc[nH]2)CC1 [Example 70, 1-[Pyrrolyl-2-carbonyl]-4-(3-ethylamino-2-pyridinyl)piperazine]	83 to 91	5.70	≤ 6.00		
CCNc1cccnc1N1CCN(C(=O)c2cc3ccccc3[nH]2)CC1 [Example 11, 1-[Indolyl-2-carbonyl]-4-[3-(ethylamino)-2-pyridinyl]piperazine]	95 to 98	5.52 to 6.52	7.00 to 8.00		
CC(C)Nc1cccnc1N1CCN(C(=O)c2cc3cc(F)ccc3[nH]2)CC1 [Example 25, 1-[5-Fluoroindolyl-2-carbonyl]-4-[3-(1-methylethylamino)-2-pyridinyl]piperazine]	96	6.40 to 6.52	8.52		
CCNc1cccnc1N1CCN(C(=O)c2cc3cc(F)ccc3[nH]2)CC1 [Example 23, 1-[5-Fluoroindolyl-2-carbonyl]4-[3-(ethylamino)-2-pyridinyl]-piperazine]	92 to 95	> 6.52	8.00 to 8.52		
CCNc1ccccc1N1CCN(C(=O)c2cc3cc(OC)ccc3[nH]2)CC1 [Example 28, 1-[5-Methoxyindolyl-2-carbonyl]-4-[2-(ethylamino)phenyl]piperazine]	70	< 4.59	6.00 to 7.00		
CCNc1cccnc1N1CCN(C(=O)c2cc3c(C)c(OC)c(C)c(C)c3[nH]2)CC1 [Example 42, 1-[5-Methoxy-4,6,7-trimethylindolyl-2-carbonyl]-4-[3-(ethylamino)-2-pyridinyl]piperazine]	63	5.70	5.00		
CCNc1cccnc1N1CCCN(C(=O)c2cc3cc(F)ccc3[nH]2)CC1 [Example 82, 1-(5-Fluoroindolyl-2-carbonyl)-4-(3-ethylamino-2-pyridinyl)-1,4-diazepine]	87 to 93	5.00	7.00 to 8.00		
CCCNc1cccnc1N1CCN(Cc2cc(C)c(OC)c(C)c2)CC1 [Example 5, 1-[4-Methoxy-3,5-dimethylbenzyl]-4-[3-(propylamino)-2-pyridinyl]-piperazine]	39 to 42	5.70			
CCNc1ccccc1N1CCN(C(=O)c2cc3ccccc3[nH]2)CC1 [Example 29, 1-[Indolyl-2-carbonyl]-4-[2-(ethylamino)phenyl]piperazine]	75 to 83	5.55	6.00 to 7.00		
CCOc1ccccc1N1CCN(C(=O)c2cc3ccccc3[nH]2)CC1 [Example 10, 1-[Indolyl-2-carbonyl]-4-[2-ethoxyphenyl]piperazine]	72 to 87	5.30	< 6.00		
CCNc1cccnc1N1CCN(C(=O)c2ccc3ccccc3c2)CC1 [Example 66, 1-[Naphthyl-2-carbonyl]-4-[3-(ethylamino)-2-pyridinyl]-piperazine]	68 to 79	< 3.55	5.00 to 6.00		
CCCNc1cccnc1N1CCN(C(=O)c2cc3cc(F)ccc3[nH]2)CC1 [Example 21, 1-[5-Fluoroindolyl-2-carbonyl]-4-[3-(propylamino)-2-pyridinyl]piperazine]	44 to 74	6.00	6.00 to 8.00		
CCNc1cccnc1N1CCCN(C(=O)c2cc3ccccc3[nH]2)CC1 [Example 81, 1-[Indolyl-2-carbonyl]-4-(3-ethylamino-2-pyridinyl)-1,4-diazepine]	90 to 98	6.05	> 9.00		
CCNc1cccnc1N1CCN(Cc2cc(C)c(O)c(C)c2)CC1 [Example 4, 1-[4-Hydroxy-3,5-dimethylbenzyl]-4-[3-(ethylamino)-2-pyridinyl]piperazine]	58	5.60	≤ 5.00		
CC(C)Nc1cccnc1N1CCN(C(=O)c2cc3cc(N=CN(C)C)ccc3[nH]2)CC1 [Example 85, 1-[(5N-(N',N'-Dimethylaminomethylene)aminoindolyl)carbonyl]-4-(3(1-methylethylamino)-2-pyridinyl)piperazine, methane sulfonate]	93 to 96	> 6.70	8.00 to 9.00		
COc1ccc2[nH]c(C(=O)N3CCN(c4ncccc4NC(C)(C)C)CC3)cc2c1 [Example 45, 1-[5-Methoxyindolyl-2-carbonyl]-4-[3-(1,1-dimethylethylamino)-2-pyridinyl]piperazine hydrochloride salt]	83 to 91	6.30	7.00 to 8.00		
CC(C)(C)Nc1cccnc1N1CCN(C(=O)c2cc3cc(F)ccc3[nH]2)CC1 [Example 46, 1-[5-Fluoroindolyl-2-carbonyl]-4-[3-(1,1-dimethylethylamino)-2-pyridinyl]piperazine hydrochloride salt]	89	6.00	8.00 to 9.00		
CCNc1cccnc1N1CCN(C(=O)c2cc3cc(Cl)ccc3[nH]2)CC1 [Example 22, 1-[5-Chloroindolyl-2-carbonyl]-4-[3-(ethylamino)-2-pyridinyl]piprazine]	76 to 82	5.30 to 6.52	8.00		
CCNc1cccnc1N1CCN(C(=O)c2cc3cc(OC)ccc3[nH]2)CC1 [Example 16A, 1-[5-Methoxyindolyl-2-carbonyl]-4-[3-(ethylamino)-2-pyridinyl]-piperazine, hydrochloride]		> 6.70	9.00		
Cc1cn([C@H]2C[C@H](N=[N+]=[N-])[C@@H](CO)O2)c(=O)[nH]c1=O [AZT, 3'-azido-3'-deoxy-thymidine, reference compound]				~6.30	~1
